From ChEMBL document CHEMBL1649082, “Trends in kinase selectivity: insights for target class-focused library screening” (J Med Chem, 2011)

Legend:
Design in all cases: scale not given: the % may be the effect or the level left
[1] = molecular target: T1, Inhibitor of nuclear factor kappa-B kinase subunit alpha (Homo sapiens) (UniProt O15111); assay: Inhibition of IKKalpha assessed as activity at 1 uM relative to control
T1 sequence (whole entry): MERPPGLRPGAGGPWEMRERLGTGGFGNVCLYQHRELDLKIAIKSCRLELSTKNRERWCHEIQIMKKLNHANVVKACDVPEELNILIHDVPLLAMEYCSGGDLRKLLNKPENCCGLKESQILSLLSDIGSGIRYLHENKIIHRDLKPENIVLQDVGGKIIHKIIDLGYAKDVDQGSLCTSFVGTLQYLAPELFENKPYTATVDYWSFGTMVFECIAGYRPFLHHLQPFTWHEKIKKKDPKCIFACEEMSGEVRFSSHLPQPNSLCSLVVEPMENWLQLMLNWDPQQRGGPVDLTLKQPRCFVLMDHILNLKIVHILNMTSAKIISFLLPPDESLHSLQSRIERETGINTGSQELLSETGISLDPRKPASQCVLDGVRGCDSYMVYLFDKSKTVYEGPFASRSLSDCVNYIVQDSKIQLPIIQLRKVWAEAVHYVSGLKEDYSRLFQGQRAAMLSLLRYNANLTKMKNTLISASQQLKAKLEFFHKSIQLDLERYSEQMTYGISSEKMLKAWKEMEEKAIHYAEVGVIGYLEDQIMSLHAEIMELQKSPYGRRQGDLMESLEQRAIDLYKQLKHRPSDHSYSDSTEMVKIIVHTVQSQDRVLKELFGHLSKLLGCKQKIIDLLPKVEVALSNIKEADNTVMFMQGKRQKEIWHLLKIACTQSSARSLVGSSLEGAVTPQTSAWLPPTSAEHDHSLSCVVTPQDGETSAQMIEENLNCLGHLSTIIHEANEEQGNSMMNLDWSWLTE

[2] = Inhibition of CDC2L2 isoform 1 assessed as activity at 1 uM relative to control
[3] = Inhibition of CDC2L1 isoform 4 assessed as activity at 1 uM relative to control
[4] = molecular target: Cyclin-dependent kinase 7 (Homo sapiens) (UniProt P50613); assay: Inhibition of CDK7 assessed as activity at 1 uM relative to control
Chain of Cyclin-dependent kinase 7 (Homo sapiens) (P50613 whole entry): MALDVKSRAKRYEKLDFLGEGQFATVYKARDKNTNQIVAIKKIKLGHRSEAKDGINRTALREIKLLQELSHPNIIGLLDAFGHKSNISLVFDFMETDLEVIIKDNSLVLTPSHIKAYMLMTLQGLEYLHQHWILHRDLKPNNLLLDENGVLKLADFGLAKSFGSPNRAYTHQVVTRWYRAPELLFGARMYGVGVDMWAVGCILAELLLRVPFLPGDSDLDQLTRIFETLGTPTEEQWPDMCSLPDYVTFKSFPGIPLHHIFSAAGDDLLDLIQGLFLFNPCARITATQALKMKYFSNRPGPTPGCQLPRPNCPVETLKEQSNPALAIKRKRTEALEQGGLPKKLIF

Activity [1]	Activity [2]	Activity [3]	Activity [4]	SMILES
15%	68%	42%	58%	Cc1cccc(-c2cc3nc(NCCN)c4ncc(C)n4c3s2)c1
4.6%	6.3%	2.1%	0.5%	Cc1cnc2c(NCCN)nc3cc(-c4cccc(CO)c4)sc3n12
